Experimental findings from patent US9629834B2, “Medicinal composition for inhibiting formation and/or enlargement of cerebral aneurysm or shrinking same” (KYOTO UNIVERSITY, priority 2013, dated 2017) are described below.

Molecules are shown by their SMILES.

The test system of one assay is cerebral aneurysm model. Put plainly: Inhibitory effect on formation of cerebral aneurysm in cerebral aneurysm model (EvG staining, size of aneurysm). As to conditions: 5 mL/kg, forced oral, once a day, Day 0 to Day 26. The assay is classed as in vivo, SD rat. The method, then:
A rat model of cerebral aneurysm was prepared according to the method disclosed on the literature by Hashimoto et al. (Surgical Neurology 1978, Vol. 10, p. 3-8). Namely, 50 mg/kg of pentobarbital was administrated intraperitoneally to a 7-week-old male SD rat, and the left common carotid artery and the left renal artery were ligated by using 10-0 nylon thread under anesthesia (this is referred to as the surgery for inducing cerebral aneurysm). From the day after surgery (Day 1), the rat was reared with being fed a high-salt diet. During a rearing period, the rat was given free access to water. Forced oral administration of 0.03 mg/5 mL or 0.1 mg/5 mL of the suspension of Compound 1 to the cerebral aneurysm model was conducted once a day at a dose of 5 mL/kg from the day after surgery, i.e., 1 day after surgery (Day 1) to 27 days after surgery (Day 27). It should be noted that forced oral administration of the 0.5% MC solution (0 mg/5 mL of the suspension of Compound 1) to the cerebral aneurysm model was conducted once a day at a dose of 5 mL/kg. The group of these rats was defined as a vehicle group. 28 Days after surgery (Day 28), the right olfactory artery/anterior cerebral artery bifurcation containing cerebral aneurysm was extirpated and was fixed with 4% paraformaldehyde, and then the solution was replaced with a 30% sucrose solution, and thereafter, the extirpated bifurcation was frozen to prepare a specimen of a frozen section having a thickness of 5 μm, by similar procedures to the steps 1) and 2) of the method of Reference Example 2. This specimen was subjected to EvG staining and the formation of cerebral aneurysm was confirmed. The size of cerebral aneurysm was measured and evaluation was conducted. The maximum diameter (Maximum) represents the maximum distance between internal elastic lamina disruption sites observed by EvG staining, the height “Height” represents the maximum value of height defined as the length of the perpendicular line drawn from the line connecting the two ends of internal elastic lamina, and the mean diameter “Mean” represents the mean value of the maximum diameter and the height. This evaluation was conducted on all the rats (8 or 9 rats) of each of the groups, and the mean value of each of the groups was calculated. The administration of 0.1 mg/5 mL of a suspension of Compound 2 to the cerebral aneurysm model was started on the day of the surgery (Day 0) at a dose of 5 mL/kg, and forced oral administration was conducted once a day until 26 days after surgery (Day 26). The size of cerebral aneurysm was measured by using the protocol of Example 1. […] The size of cerebral aneurysm was measured by using the protocol of Example 1. […] The size of cerebral aneurysm was measured by using the protocol of Example 1.

The test system of assay [1] is Human carotid artery endothelial cells. In words: Inhibitory action of S1P1 receptor antagonist on inhibitory effect of Compound 1 on permeability of endothelial cells. The assay is classed as cell-based. As to conditions: antagonist 0.1 nM, 1 nM, 10 nM, or 100 nM with Compound 1 100 nM; FITC-dextran; FIG. 15. On the procedure: Human carotid artery endothelial cells HCtAEC (Cell Applications) were seeded in the upper compartment of Transwell (diameter: 6.5 mm, pore size: 0.4 μm, collagen-Coated: Corning) so that the cell density was 1×10^5 cells/well, and the cells were cultured overnight in MesoEndo Growth Medium (Cell Applications) under a 5% CO2 atmosphere at 37° C. The medium was replaced with Endothelial Cell Serum-Free Defined Medium (Cell Applications), and the cells were further cultured overnight under the CO2 atmosphere at 37° C. Then, Compound 1 was added to the upper compartment and the lower compartment of Transwell so that the final concentration was 0 nM, 0.1 nM, 1 nM, 10 nM, or 100 nM, and the cells were cultured continuously. The well to which Compound 1 was not added was defined as a control. After culturing for 60 minutes, 250 μg/mL of fluorescein isothiocyanate (FITC)-dextran (2,000 kDa: Sigma-Aldrich) was added to the upper compartment of Transwell, and the amount of FITC-dextran which permeated into the lower compartment was determined by measuring the fluorescence intensity of the medium in the lower compartment after 5 minutes, 60 minutes, and 210 minutes. […]
After culturing for 60 minutes, the amount of FITC-dextran which permeated into the lower compartment was determined in a similar manner to Example 6.

As to `Cl.O=C(O)C1CCN(CC2=Cc3ccc(OCc4ccc(OCC(F)(F)F)c(C(F)(F)F)c4)cc3OC2)CC1` [Compound 2, 1-[(7-{[4-(2,2,2-trifluoroethoxy)-3-(trifluoromethyl)benzyl]oxy}-2H-chromen-3-yl)methyl]piperidine-4-carboxylic acid hydrochloride], the “formation of cerebral aneurysm (size)” value in the assay on cerebral aneurysm model (0.1 mg/5 mL suspension, FIG. 11) is listed as “inhibited the formation of cerebral aneurysm”.
For `Cl.NC(CO)(CO)CCc1ccc(Sc2cccc(OCc3ccccc3)c2)cc1Cl` [Compound 3, 2-amino-2-[2-[4-[3-(benzyloxy)phenylsulfanyl]-2-chlorophenyl]ethyl]propane-1,3-diol hydrochloride], the “formation of cerebral aneurysm (size)” value in the assay with cerebral aneurysm model (0.01 mg/5 mL suspension, FIG. 12) is “inhibited the formation of cerebral aneurysm”.
Consider `CCc1cc(/C(C)=N/OCc2ccc(C3CCCCC3)c(C(F)(F)F)c2)ccc1CN1CC(C(=O)O)C1` [Compound 4, 1-[4-[N-[4-cyclohexyl-3-(trifluoromethyl)benzyloxy]-1(E)-iminoethyl]-2-ethylbenzyl]azetidine-3-carboxylic acid], for which the “formation of cerebral aneurysm (size)” value with cerebral aneurysm model (0.3 mg/5 mL suspension, FIG. 13) is “inhibited the formation of cerebral aneurysm”.
As to `CCn1c(Oc2cccc(N3CCN(C)CC3)c2)nnc1[C@@H](C)NS(=O)(=O)c1ccc2c(Cl)cccc2c1` [Compound At, 5-chloro-N-[(1R)-1-{4-ethyl-5-[3-(4-methylpiperazin-1-yl)phenoxy]-4H-1,2,4-triazol-3-yl}ethyl]naphthalene-2-sulfonamide], the “effect on the inhibitory effect of Compound 1 on permeability of endothelial cells” value in assay [1] is listed as “inhibited the inhibitory effect of Compound 1 on permeability of endothelial cells in a concentration-dependent manner”.
